# Assay results: ChEMBL document CHEMBL2040736, “Design of potent and selective hybrid inhibitors of the mitotic kinase Nek2: structure-activity relationship, structural biology, and cellular activity” (J Med Chem, 2012)
# Columns and labels:
# [1] = target: T1, Dual specificity protein kinase TTK (Homo sapiens, UniProt P33981); experiment: Inhibition of MPS1 by caliper method
# T1 sequence (P33981 whole entry): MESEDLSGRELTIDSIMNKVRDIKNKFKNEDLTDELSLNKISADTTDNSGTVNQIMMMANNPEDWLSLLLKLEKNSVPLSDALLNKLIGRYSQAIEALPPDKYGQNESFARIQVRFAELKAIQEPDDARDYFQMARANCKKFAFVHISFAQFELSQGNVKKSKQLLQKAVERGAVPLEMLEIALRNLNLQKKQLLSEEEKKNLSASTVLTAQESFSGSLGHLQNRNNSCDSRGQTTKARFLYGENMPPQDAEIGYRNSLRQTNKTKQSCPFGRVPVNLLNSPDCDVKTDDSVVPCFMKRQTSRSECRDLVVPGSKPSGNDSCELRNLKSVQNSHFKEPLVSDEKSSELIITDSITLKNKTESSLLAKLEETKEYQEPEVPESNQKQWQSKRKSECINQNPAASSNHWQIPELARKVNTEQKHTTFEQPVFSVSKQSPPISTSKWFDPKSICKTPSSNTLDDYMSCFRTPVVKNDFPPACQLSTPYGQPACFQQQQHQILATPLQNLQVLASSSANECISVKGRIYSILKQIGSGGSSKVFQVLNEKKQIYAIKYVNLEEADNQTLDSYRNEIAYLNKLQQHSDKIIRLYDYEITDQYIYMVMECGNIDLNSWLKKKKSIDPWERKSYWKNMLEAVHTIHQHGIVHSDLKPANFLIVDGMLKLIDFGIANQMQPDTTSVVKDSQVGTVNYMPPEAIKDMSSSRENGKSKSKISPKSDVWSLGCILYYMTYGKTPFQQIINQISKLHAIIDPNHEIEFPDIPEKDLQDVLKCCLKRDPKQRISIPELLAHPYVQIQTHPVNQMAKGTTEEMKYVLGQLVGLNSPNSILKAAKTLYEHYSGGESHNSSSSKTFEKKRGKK
# Aurora kinase A = target: T2, Aurora kinase A (Homo sapiens, UniProt O14965); experiment: Inhibition of Aurora A kinase by caliper method
# T2 sequence (O14965 whole entry): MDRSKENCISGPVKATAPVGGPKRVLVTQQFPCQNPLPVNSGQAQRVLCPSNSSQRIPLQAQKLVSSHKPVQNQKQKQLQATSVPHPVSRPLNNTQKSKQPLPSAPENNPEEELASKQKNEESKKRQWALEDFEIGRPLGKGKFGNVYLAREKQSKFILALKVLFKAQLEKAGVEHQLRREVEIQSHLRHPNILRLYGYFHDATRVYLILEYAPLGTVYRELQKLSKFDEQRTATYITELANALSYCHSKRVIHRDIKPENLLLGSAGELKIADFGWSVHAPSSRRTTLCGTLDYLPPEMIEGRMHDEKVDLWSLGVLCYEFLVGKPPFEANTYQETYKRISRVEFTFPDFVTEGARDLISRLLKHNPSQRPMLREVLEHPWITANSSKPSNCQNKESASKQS
# [2] = target: Cyclin-dependent kinase 2 (Homo sapiens, UniProt P24941); experiment: Inhibition of CDK2 by caliper method
# [3] = target: Mitogen-activated protein kinase 3 (Homo sapiens) (UniProt P27361); experiment: Inhibition of Erk1 at 1 uM incubated for 30 mins prior to substrate addition study done at apparent ATP Km for enzyme
# Mitogen-activated protein kinase 3 (Homo sapiens), sequence (P27361 whole entry): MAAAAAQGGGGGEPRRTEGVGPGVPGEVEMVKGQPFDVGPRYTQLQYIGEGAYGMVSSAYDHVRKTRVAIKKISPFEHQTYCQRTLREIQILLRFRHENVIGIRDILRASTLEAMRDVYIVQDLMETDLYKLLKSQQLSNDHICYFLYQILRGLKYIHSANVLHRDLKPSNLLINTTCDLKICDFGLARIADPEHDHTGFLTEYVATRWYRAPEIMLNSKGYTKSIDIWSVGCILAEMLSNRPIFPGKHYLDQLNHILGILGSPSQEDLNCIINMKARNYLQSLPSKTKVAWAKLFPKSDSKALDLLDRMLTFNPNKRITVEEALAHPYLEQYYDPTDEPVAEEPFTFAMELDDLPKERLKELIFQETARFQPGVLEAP
# [4] = target: Serine/threonine-protein kinase D2 (Homo sapiens, UniProt Q9BZL6); experiment: Inhibition of PKD2 incubated for 30 mins prior to substrate addition study done at apparent ATP Km for enzyme
# Serine/threonine-protein kinase D2, sequence (Q9BZL6 whole entry): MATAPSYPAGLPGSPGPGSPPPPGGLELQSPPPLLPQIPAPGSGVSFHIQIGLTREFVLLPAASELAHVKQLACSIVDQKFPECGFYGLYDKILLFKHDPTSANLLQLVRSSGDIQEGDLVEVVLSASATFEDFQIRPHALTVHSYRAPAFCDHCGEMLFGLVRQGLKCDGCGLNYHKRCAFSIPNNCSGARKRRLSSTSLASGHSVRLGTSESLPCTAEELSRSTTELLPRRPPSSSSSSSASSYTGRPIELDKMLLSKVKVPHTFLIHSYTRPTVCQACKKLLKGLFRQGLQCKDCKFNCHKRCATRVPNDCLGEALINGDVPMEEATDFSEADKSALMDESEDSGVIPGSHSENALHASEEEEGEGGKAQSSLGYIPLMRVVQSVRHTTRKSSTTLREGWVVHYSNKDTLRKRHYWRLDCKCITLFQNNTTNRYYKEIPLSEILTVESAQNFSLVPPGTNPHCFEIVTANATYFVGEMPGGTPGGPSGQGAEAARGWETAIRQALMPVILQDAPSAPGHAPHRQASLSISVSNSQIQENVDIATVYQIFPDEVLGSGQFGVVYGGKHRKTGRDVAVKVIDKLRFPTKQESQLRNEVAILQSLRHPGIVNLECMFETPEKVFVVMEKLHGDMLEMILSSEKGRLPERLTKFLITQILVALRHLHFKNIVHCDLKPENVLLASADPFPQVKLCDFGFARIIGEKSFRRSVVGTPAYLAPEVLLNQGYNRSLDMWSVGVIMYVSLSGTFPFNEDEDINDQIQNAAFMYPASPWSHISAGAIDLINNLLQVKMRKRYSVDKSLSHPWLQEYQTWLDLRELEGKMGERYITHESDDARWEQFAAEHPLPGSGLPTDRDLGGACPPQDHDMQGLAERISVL
# [5] = target: Serine/threonine-protein kinase Chk1 (Homo sapiens) (UniProt O14757); experiment: Inhibition of CHK1 at 1 uM incubated for 30 mins prior to substrate addition study done at apparent ATP Km for enzyme
# Serine/threonine-protein kinase Chk1 (Homo sapiens), sequence (O14757 whole entry): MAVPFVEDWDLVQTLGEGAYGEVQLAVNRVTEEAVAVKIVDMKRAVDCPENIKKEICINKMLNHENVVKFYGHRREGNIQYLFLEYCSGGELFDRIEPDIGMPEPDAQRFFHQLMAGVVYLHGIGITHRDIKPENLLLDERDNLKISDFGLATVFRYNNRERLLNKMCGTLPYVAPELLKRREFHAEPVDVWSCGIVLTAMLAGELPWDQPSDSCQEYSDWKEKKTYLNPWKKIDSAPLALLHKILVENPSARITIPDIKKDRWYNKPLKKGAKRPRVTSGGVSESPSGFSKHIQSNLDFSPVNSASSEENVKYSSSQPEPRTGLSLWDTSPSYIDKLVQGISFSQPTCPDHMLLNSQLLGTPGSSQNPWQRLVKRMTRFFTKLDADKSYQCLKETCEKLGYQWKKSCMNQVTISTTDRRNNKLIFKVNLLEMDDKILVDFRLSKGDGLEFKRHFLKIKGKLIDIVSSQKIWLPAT
# [6] = target: Proto-oncogene tyrosine-protein kinase Src (Homo sapiens, UniProt P12931); experiment: Inhibition of SRC incubated for 30 mins prior to substrate addition study done at apparent ATP Km for enzyme
# Proto-oncogene tyrosine-protein kinase Src, sequence (P12931 2-536 limits assumed): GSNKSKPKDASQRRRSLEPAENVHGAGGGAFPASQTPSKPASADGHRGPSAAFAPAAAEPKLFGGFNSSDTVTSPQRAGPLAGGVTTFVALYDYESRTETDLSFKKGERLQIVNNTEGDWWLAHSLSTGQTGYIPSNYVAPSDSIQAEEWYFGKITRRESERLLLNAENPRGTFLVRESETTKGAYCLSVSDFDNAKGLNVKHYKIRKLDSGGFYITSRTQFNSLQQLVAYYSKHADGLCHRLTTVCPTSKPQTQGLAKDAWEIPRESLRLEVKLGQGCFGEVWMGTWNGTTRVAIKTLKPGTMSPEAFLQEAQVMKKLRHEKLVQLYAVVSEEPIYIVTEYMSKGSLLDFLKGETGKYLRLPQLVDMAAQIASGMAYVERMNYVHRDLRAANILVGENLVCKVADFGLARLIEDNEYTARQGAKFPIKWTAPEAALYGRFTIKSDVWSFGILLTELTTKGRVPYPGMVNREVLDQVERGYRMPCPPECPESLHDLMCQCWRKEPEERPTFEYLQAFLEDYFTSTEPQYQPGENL
# [7] = Inhibition of PKA at 1 uM incubated for 30 mins prior to substrate addition study done at apparent ATP Km for enzyme
# HeLa = experiment: Growth inhibition of human HeLa cells after 92 hrs by CellTiter-Blue assay; assay type: functional
# MCF7 = experiment: Growth inhibition of human MCF7 cells after 92 hrs by CellTiter-Blue assay; assay type: functional; settings: MCF7, 92 h
compound,measurement,setting,value
C[C@H](/C=C\C(F)(F)F)Oc1cc(-c2cc(-c3cc(CN(C)C)cs3)cnc2N)ccc1C(N)=O,IC50,[1],8.47 µM
same,IC50,Aurora kinase A,4.94 µM
same,IC50,[2],4.57 µM
same,inhibition,[3],2%
same,IC50,[4],330 nM
same,inhibition,[5],11%
same,IC50,[6],840 nM
same,inhibition,[7],12%
same,GI50,HeLa,590 nM
same,GI50,MCF7,2170 nM
